Results on two compounds are retold here after patent US20080153827A1, “Method for the Treatment or Prevention of Cardiac Hypertrophy” (priority 2004, published 2008).

What all share (format): in vivo, rat
The subject of experiment [1] is Dahl salt-sensitive rats (SS/JrHsd) on high salt diet. The experiment is described as follows: Heart weight/body weight ratio in Dahl salt-sensitive rats on high salt diet. The following applies: both doses (10 mg/l and 1 mg/l in drinking water), 7 weeks, FIG. 1. The method, then: (§1) 6-week-old male Dahl salt-sensitive rats (SS/JrHsd) received the following diet and drug regimens for 7 weeks: 1) Dahl SS controls on high salt diet, 2) Dahl SS rats on high salt diet+high-dose levosimendan (10 mg/l of levosimendan in drinking water), 3) Dahl SS rats on high salt diet+low-dose levosimendan (1 mg/l of levosimendan in drinking water) and 4) Dahl SS controls on low salt diet. High salt diet was produced by adding NaCl to commercial low salt diet. The consumption of drinking water and food as well as the body weight and general health of the animals were monitored. Systolic blood pressure was measured by using a tail cuff blood pressure at week 3.5 and week 7. At the end the study the hearts was excised, washed with ice-cold saline, blotted dry and weighed.

Experiment [2] has the same test system. As to the kind of experiment: Systolic blood pressure by tail cuff in Dahl salt-sensitive rats. The following applies: data not shown. The method, then: as §1
For experiment [3], the system named is Myocardial SERCA2 and NCX expressions. The experiment is described as follows: Myocardial SERCA2/NCX protein ratio by Western blot. As to conditions: both doses (10 mg/l and 1 mg/l in drinking water), 7 weeks, high salt diet; FIG. 2. The method, then: as §1
Myocardial SERCA2 and NCX expressions were determined by Western blot analysis using standard procedure. Myocardial samples were homogenized in extraction buffer and protease inhibitor. Myocardial samples (15 μg protein per lane) were electrophoretically separated by SDS-PAGE (8% Acryl amide). The proteins were transferred to a PVDF membrane by semi-dry blotting in electrophoresis device. […] The films were scanned in a densitometer and a semi-quantitative measurement of the relative intensity of each protein band was performed using the “GeneSnap”-software program.

Experiment [4] relates to atrial natriuretic peptide (ANP) mRNA. As to the kind of experiment: Myocardial atrial natriuretic peptide (ANP) mRNA expression by quantitative real time PCR. The following applies: high dose (10 mg/l in drinking water), 7 weeks, high salt diet; FIG. 3. The method, then: as §1, with “At the end the study the hearts was excised, washed with ice-cold saline, blotted dry and weighed.” left out
Total RNA from the rat hearts were collected, treated with DNAse 1 and reverse transcribed to cDNA by incubation of 50 min in 45° C. with presence of reverse transcription enzyme (Enhanced avian HS RT-PCR kit, Sigma Chemicals Co.). 1 μl of cDNA was subjected to a quantitative real time polymerase chain reaction by Lightcycler instrument (Roche Diagnostics) for detection of ANP and GAPDH mRNAs. […] After amplification the quality of PCR products were analyzed with the melting step consisting of heating to 95° C., cooling to annealing temperature for 15 seconds, and finally a slow rise in temperature to 95° C. with a continuous acquisition of fluorescence decline. […]
In general terms: In qPCR the cycle at which signal appears reflects the starting amount.

The subject of experiment [5] is Dahl salt-sensitive rats (SS/JrHsd) on high salt diet. The experiment is described as follows: Echocardiography: interventricular septum (IVS) wall thickness. The following applies: 3.5 weeks, FIG. 4. The method, then: 6-week-old male Dahl salt-sensitive rats (SS/JrHsd) received the following diet and drug regimens: Dahl salt-sensitive rats on low salt diet (1), on high salt diet (2), on high salt diet treated with 10 mg/l of levosimendan in drinking water (3), on high salt diet treated with 1 mg/l of levosimendan in drinking water (4) and on high salt diet treated with 0.5 mg/kg of the active metabolite (II) (OR-1896) of levosimendan in drinking water (5). High salt diet was produced by adding NaCl to commercial low salt diet. After 3.5 weeks transthoracic echocardiography was performed using a Toshiba Ultrasound System and a 15 MHz linear transducer under light isoflurane anesthesia. Using two-dimensional imaging, a short axis view of the left ventricle at the level of the papillary muscles was obtained and the two-dimensionally guided M-mode recording through the anterior and posterior walls of the left ventricle was obtained.

With `CC1CC(=O)NN=C1c1ccc(NN=C(C#N)C#N)cc1` (single isomer, unassigned; (-)) [Levosimendan, (−)-enantiomer of [[4-(1,4,5,6-tetrahydro-4-methyl-6-oxo-3-pyridazinyl)phenyl]hydrazono]propanedinitrile], the “development of cardiac hypertrophy measured as heart weight-to-body weight-ratio” value in experiment [1] is given as “equally prevented the development of cardiac hypertrophy”. In addition, the figures for the blood pressure entry in experiment [2] (high-dose (10 mg/l in drinking water)) and in experiment [2] (low-dose (1 mg/l in drinking water)) were “produced a transient decrease in blood pressure” and “did not influence blood pressure”, respectively. Further, in experiment [3], the “myocardial SERCA2-to-NCX-ratio” value is reported as “increased SERCA2-to-NCX-ratio in the heart”. Moreover, the “myocardial ANP mRNA expression” value in experiment [4] is given as “decrease ANP mRNA expression to levels found in low salt diet controls”. In addition, in experiment [5] (10 mg/l and 1 mg/l in drinking water), the “Interventricular septum (IVS) wall thickness” value was “significantly reduce the increased heart wall thickness”.

On to `CC(=O)Nc1ccc(C2=NNC(=O)C[C@H]2C)cc1` [active metabolite (II), (R)-N-[4-(1,4,5,6-tetrahydro-4-methyl-6-oxo-3-pyridazinyl)phenyl]acetamide], for which, in experiment [5] (0.5 mg/kg in drinking water), the “Interventricular septum (IVS) wall thickness” value is on record as “significantly reduce the increased heart wall thickness”.
